Laboratory results taken from ChEMBL document CHEMBL4033709, “Quorum sensing modulators exhibit cytotoxicity in Hodgkin's lymphoma cells and interfere with NF-κB signaling” (Bioorg Med Chem Lett, 2017).
The source made the active and inactive calls. No cut-off for these calls is given here.

Assays:
[1] = test system: L-428; test: Inhibition of NFkappaB p65 subunit expression in cytosolic fractions of human L428 cells at 2.5 ug/ml after 2 hrs by Western method; format: functional, cell-based
[2] = test system: L-428; test: Cytotoxicity against human L428 cells after 24 by XTT assay; format: functional, cell-based
[3] = test system: A549; test: Anti-migratory activity against human A549 cells assessed as reduction in wound closure at 5.6 uM after 48 hrs by wound-scratch assay; format: functional, cell-based
[4] = species on record: Homo sapiens; test: (§1) Inhibition of NF-kappaB (unknown origin) expressed in human L428 cells after 2 hrs by luciferase reporter gene assay; format: cell-based
[5] = as §1; format: cell-based; details: L-428, 2 h
[6] = test system: L-428; test: Inhibition of NFkappaB p65 subunit expression in nuclear fractions of human L428 cells at 2.5 ug/ml after 2 hrs by Western method; format: functional, cell-based
[7] = test system: L-428; test: Inhibition of NFkappaB p50 subunit expression in cytosolic fractions of human L428 cells at 2.5 ug/ml after 2 hrs by Western method; format: functional, cell-based
[8] = test system: L-428; test: Inhibition of NFkappaB RelB subunit expression in nuclear fractions of human L428 cells at 2.5 ug/ml after 2 hrs by Western method; format: functional, cell-based
[9] = test system: L-428; test: Cytotoxicity against human L428 cells after 48 by XTT assay; format: functional, cell-based
[10] = test system: L-428; test: Inhibition of NFkappaB RelB subunit expression in cytosolic fractions of human L428 cells at 2.5 ug/ml after 2 hrs by Western method; format: functional, cell-based
[11] = test system: L-428; test: Inhibition of NFkappaB p50 subunit expression in nuclear fractions of human L428 cells at 2.5 ug/ml after 2 hrs by Western method; format: functional, cell-based
[12] = test system: A549; test: Anti-migratory activity against human A549 cells assessed as reduction in wound closure at 7.94 uM after 48 hrs by wound-scratch assay; format: functional, cell-based
[13] = test system: A549; test: Anti-migratory activity against human A549 cells assessed as reduction in wound closure at 2.6 uM after 48 hrs by wound-scratch assay; format: functional, cell-based

O=C(CCCCCCCCCN=C=S)CC(=O)N[C@H]1CCOC1=O
inhibition [1]: Active | IC50 [2]: 13.3 µM | Activity [3]: Active | inhibition [4]: Dose-dependent effect | IC50 [5]: 4.1 µM | inhibition [6]: Active | inhibition [7]: Active | inhibition [8]: Active | IC50 [9]: 12.4 µM | inhibition [10]: Active | inhibition [11]: Active

O=C1C=C(Br)/C(=C/Br)O1
inhibition [1]: Active | IC50 [2]: 5.16 µM | inhibition [4]: Dose-dependent effect | IC50 [5]: 9.9 µM | inhibition [6]: Active | inhibition [7]: Active | inhibition [8]: Active | IC50 [9]: 3.05 µM | inhibition [10]: Active | Activity [12]: Active | inhibition [11]: Active

CCCC(=O)N[C@H]1CCOC1=O
inhibition [4]: Dose-dependent effect

CCCCCCCCCC(=O)CC(=O)N[C@H]1CCOC1=O
inhibition [4]: Dose-dependent effect

C#CCCCCCCCCC(=O)CC(=O)N[C@H]1CCOC1=O
inhibition [4]: Dose-dependent effect

CCCCCCCc1[nH]c2ccccc2c(=O)c1O
inhibition [4]: Dose-dependent effect

O=C(CCCCCCCC(Cl)CN=C=S)CC(=O)N[C@H]1CCOC1=O (some centres undefined)
Activity [13]: Active | inhibition [1]: Active | IC50 [2]: 15.1 µM | inhibition [4]: Dose-dependent effect | IC50 [5]: 12.8 µM | inhibition [6]: Active | inhibition [7]: Active | inhibition [8]: Active | IC50 [9]: 18.3 µM | inhibition [10]: Active | inhibition [11]: Active

COc1cc(/C=C/C(=O)CC(=O)/C=C/c2ccc(O)c(OC)c2)ccc1O
inhibition [4]: Active

CCCCCCCCCCCN=C=S
inhibition [4]: Dose-dependent effect
